Results as given in US20100249071A1, “Modulators of S1P and Methods of Making And Using” (Exelixis, Inc., priority 2009, published 2010).
Like-named read-outs stand apart in the source and are kept apart here.

Tests used:
[1] = target: T1, hS1PR5 (hEdg8) membrane protein (Homo sapiens, UniProt Q9H228); assay: hS1P5R GTPγS binding assay (Assay 4); type: biochemical
T1 construct: expressed in transfected cells; host or cells: CHO
Outline: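 Membranes (5 μg) from CHO cells expressing hS1PR5, incubated 1 h at room temperature with 30 μM GDP, 0.1 nM [35S]GTPγS, 0.25% fatty acid free BSA and serially diluted compound in pH 7.9 Tris buffer with MgCl2. WGA SPA beads added for another 1 h, then bound [35S]GTPγS counted by scintillation.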

[2] = target: T2, S1P3 (Homo sapiens, UniProt Q99500); assay: S1P3 Tango β-arrestin recruitment assay in HEK293 cells (Assay 5); type: cell-based
T2 construct: host or cells: HEK293 (transient transfection)
Outline: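 HEK293 cells transiently expressing S1P3 fused via TEV-cleavable linker to tTA, with β-arrestin2–TEV, treated 16-18 h at 37 °C with compounds (top 10 μM, 10-point 3-fold, 1% DMSO). Luciferase reporter luminescence normalised to DMSO background and 5 μM S1P control as percent activity; EC50 from concentration-response curves.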

[3] = target: T3, S1P1 (Homo sapiens, UniProt P21453); assay: Tango β-arrestin recruitment assay in U2OS cells (Assay 2b); type: cell-based
T3 construct: host or cells: U2OS
Outline: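 In this agonist-mode Tango assay, U2OS cells carrying S1P1 and the reporter were serum-starved 48 h, then exposed overnight at 37 °C to compound (10 points, 3-fold, top 1 μM, 1% DMSO). β-Lactamase F460/F530 ratio was normalized to 1 μM S1P, and EC50 was fitted.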

[4] = target: T4, hS1P1R (hEdg1) membrane protein (Homo sapiens, UniProt P21453); assay: hS1P1R GTPγS binding assay (Assay 3a); type: biochemical
T4 construct: purchased Lonza
Outline: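 Membranes (4 μg) expressing hS1P1R incubated 1 h at room temperature with 30 μM GDP, 0.1 nM [^35S]GTPγS, 0.25% fatty acid free BSA and serially diluted agonist in Tris-HCl pH 7.9/NaCl/MgCl2/EGTA buffer. Bound [^35S]GTPγS captured on WGA SPA beads (further 1 h) and counted.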

[5] = * = rEC50 measured rather than EC50, read-out: Assay 5 rEC50 (relative EC50, cells marked *)

T1 sequence (Q9H228 whole entry): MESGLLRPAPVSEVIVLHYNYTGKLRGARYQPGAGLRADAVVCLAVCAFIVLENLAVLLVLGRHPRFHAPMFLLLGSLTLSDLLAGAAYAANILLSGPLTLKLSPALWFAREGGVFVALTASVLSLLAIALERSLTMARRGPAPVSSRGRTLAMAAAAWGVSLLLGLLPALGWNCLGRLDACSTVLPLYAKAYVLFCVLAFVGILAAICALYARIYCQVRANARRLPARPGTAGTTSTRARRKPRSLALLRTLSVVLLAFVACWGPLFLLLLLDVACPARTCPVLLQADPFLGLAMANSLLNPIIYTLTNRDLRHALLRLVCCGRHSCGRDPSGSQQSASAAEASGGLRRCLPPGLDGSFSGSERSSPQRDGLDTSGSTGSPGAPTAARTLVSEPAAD
T3 sequence (P32121 whole entry): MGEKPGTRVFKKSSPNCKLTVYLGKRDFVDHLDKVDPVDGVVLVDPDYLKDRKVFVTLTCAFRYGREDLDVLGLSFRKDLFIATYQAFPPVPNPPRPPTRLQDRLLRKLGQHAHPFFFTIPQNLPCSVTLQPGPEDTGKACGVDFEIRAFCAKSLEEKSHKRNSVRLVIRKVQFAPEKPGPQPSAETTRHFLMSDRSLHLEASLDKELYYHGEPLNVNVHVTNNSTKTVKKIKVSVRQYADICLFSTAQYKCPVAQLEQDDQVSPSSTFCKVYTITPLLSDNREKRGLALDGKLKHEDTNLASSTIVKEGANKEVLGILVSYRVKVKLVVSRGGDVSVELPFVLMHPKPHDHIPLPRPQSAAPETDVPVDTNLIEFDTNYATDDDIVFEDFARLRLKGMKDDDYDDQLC
T3 sequence (P21453 whole entry): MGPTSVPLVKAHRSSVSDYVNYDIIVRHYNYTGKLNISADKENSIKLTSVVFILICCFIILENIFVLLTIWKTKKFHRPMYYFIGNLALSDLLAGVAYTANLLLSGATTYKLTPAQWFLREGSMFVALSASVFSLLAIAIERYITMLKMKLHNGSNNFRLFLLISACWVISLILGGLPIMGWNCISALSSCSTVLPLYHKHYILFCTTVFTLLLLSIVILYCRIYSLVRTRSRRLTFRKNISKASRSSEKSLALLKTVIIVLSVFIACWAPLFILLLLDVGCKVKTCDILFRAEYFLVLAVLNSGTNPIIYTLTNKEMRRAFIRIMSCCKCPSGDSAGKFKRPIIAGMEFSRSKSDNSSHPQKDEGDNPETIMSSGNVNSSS
T2 sequence (P32121 whole entry): as the sequence (P32121 whole entry) above
T2 sequence (Q99500 whole entry): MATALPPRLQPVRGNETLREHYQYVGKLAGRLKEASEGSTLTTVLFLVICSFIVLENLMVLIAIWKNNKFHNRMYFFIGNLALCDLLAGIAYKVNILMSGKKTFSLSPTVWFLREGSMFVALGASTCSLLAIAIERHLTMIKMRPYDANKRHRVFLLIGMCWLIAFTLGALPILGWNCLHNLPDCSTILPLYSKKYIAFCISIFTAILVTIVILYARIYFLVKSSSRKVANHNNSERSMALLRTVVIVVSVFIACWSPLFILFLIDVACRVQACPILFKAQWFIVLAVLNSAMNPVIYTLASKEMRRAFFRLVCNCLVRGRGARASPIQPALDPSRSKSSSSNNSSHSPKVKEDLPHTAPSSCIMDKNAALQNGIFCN
T4 sequence (P21453 whole entry): as the sequence (P21453 whole entry) above

Compound | EC50 [1] [nM] | EC50 ([2]; read-out: Assay 5 EC50) [nM] | EC50 ([3]; read-out: Assay 2b EC50) [nM] | EC50 [4] [nM] | EC50 [2, 5] [nM] | EC50 ([3]; * = rEC50 measured rather than EC50, read-out: Assay 2b rEC50 (relative EC50, cells marked *)) [nM]
CC(C)Nc1ncc(-c2nnc(-c3cc(F)c(OC[C@H](N)CO)cc3Cl)s2)cc1Cl [Entry 81, (2R)-2-amino-3-{[5-chloro-4-(5-{5-chloro-6-[(1-methylethyl)amino]pyridin-3-yl}-1,3,4-thiadiazol-2-yl)-2-fluorophenyl]oxy}propan-1-ol] | 250 to 2800 | > 10000 | 10 to 50 | 10 to 50 |  | 
CC(C)Nc1ccc(-c2nnc(-c3cc(F)c(OC[C@H](N)[C@H](C)O)cc3Cl)s2)cn1 [Entry 56, (2S,3S)-3-amino-4-{[5-chloro-2-fluoro-4-(5-{6-[(1-methylethyl)amino]pyridin-3-yl}-1,3,4-thiadiazol-2-yl)phenyl]oxy}butan-2-ol] | > 10000 | > 10000 | 250 to 2800 | 250 to 2800 |  | 
(1R,2S)-2-amino-3-{[5-chloro-2-fluoro- 4-(5-{3-methyl-4-[(1- methylethyl)oxy]phenyl}-1,3,4- thiadiazol-2-yl)phenyl]oxy}-1- methylpropyl dihydrogen phosphate [Entry 99] | 10 to 50 | ≤ 250 | ≤ 10 | ≤ 10 |  | 
Cc1cc(-c2nnc(-c3cc(F)c(OC[C@H](N)[C@@H](C)O)cc3Cl)s2)cnc1NC(C)C [Entry 65, (2R,3S)-3-amino-4-{[5-chloro-2-fluoro-4-(5-{5-methyl-6-[(1-methylethyl)amino]pyridin-3-yl}-1,3,4-thiadiazol-2-yl)phenyl]oxy}butan-2-ol] | 2800 to 10000 | > 10000 | 10 to 50 | 50 to 250 |  | 
CC(C)Oc1ccc(-c2nnc(-c3cc(F)c(OC[C@H](N)CO)cc3Cl)s2)cc1C(N)=O [Entry 80, 5-[5-(4-{[(2R)-2-amino-3-hydroxypropyl]oxy}-2-chloro-5-fluorophenyl)-1,3,4-thiadiazol-2-yl]-2-[(1-methylethyl)oxy]benzamide] | 250 to 2800 | > 10000 |  | 250 to 2800 |  | 250 to 2800
Cc1cc(-c2nnc(-c3cc(F)c(OC[C@H](N)[C@@H](C)O)cc3Cl)s2)ccc1OC(C)C [Entry 60, (2R,3S)-3-amino-4-{[5-chloro-2-fluoro-4-(5-{3-methyl-4-[(1-methylethyl)oxy]phenyl}-1,3,4-thiadiazol-2-yl)phenyl]oxy}butan-2-ol] | 10 to 50 | > 10000 | 10 to 50 | ≤ 10 |  | 
CC(C)Oc1ccc(-c2nnc(-c3cc(F)c(OC[C@H](N)CO)c(Cl)c3)s2)cc1Cl [Entry 40, (2R)-2-amino-3-{[2-chloro-4-(5-{3-chloro-4-[(1-methylethyl)oxy]phenyl}-1,3,4-thiadiazol-2-yl)-6-fluorophenyl]oxy}propan-1-ol] | 10 to 50 | > 10000 | 10 to 50 | ≤ 10 |  | 
CC(C)Oc1ncc(-c2nnc(-c3cc(F)c(OC[C@H](N)CO)cc3Cl)s2)cc1Cl [Entry 20, (2R)-2-amino-3-{[5-chloro-4-(5-{5-chloro-6-[(1-methylethyl)oxy]pyridin-3-yl}-1,3,4-thiadiazol-2-yl)-2-fluorophenyl]oxy}propan-1-ol] | 250 to 2800 | > 10000 | 250 to 2800 | 50 to 250 |  | 
CC(C)Nc1ncc(-c2nnc(-c3cc(F)c(OC[C@H](N)[C@@H](C)O)cc3Cl)s2)cc1Cl [Entry 48, (2R,3S)-3-amino-4-{[5-chloro-4-(5-{5-chloro-6-[(1-methylethyl)amino]pyridin-3-yl}-1,3,4-thiadiazol-2-yl)-2-fluorophenyl]oxy}butan-2-ol] | 250 to 2800 | > 10000 | ≤ 10 | 10 to 50 |  | 
CC(C)Oc1ccc(-c2nnc(-c3cc(F)c(OC[C@H](N)[C@@H](C)OP(=O)(O)O)cc3Cl)s2)cc1Cl [Entry 51, (1R,2S)-2-amino-3-{[5-chloro-4-(5-{3-chloro-4-[(1-methylethyl)oxy]phenyl}-1,3,4-thiadiazol-2-yl)-2-fluorophenyl]oxy}-1-methylpropyl dihydrogen phosphate] | ≤ 10 | ≤ 250 | ≤ 10 | ≤ 10 |  | 
COCCOc1ccc(-c2nnc(-c3cc(F)c(OC[C@H](N)CO)cc3Cl)s2)cc1C#N [Entry 78, 5-[5-(4-{[(2R)-2-amino-3-hydroxyporpyl]oxy}-2-chloro-5-fluorophenyl)-1,3,4-thiadiazol-2-yl]-2-{[2-(methyloxy)ethyl]oxy}benzonitrile] | 250 to 2800 | > 10000 | 10 to 50 | 50 to 250 |  | 
CC(C)Oc1ccc(-c2nnc(-c3cc(F)c(OC[C@H](N)[C@H](C)OP(=O)(O)O)cc3Cl)s2)cc1Cl [Entry 69, (1S,2S)-2-amino-3-{[5-chloro-4-(5-{3-chloro-4-[(1-methylethyl)oxy]phenyl}-1,3,4-thiadiazol-2-yl)-2-fluorophenyl]oxy}-1-methylpropyl dihydrogen phosphate] | 10 to 50 |  | ≤ 10 | ≤ 10 | > 250 | 
N[C@H](CO)COc1cc(Cl)c(-c2nnc(-c3cccc(Cl)c3)s2)cc1F [Entry 15, (2R)-2-amino-3-({5-chloro-4-[5-(3-chlorophenyl)-1,3,4-thiadiazol-2-yl]-2-fluorophenyl}oxy)propan-1-ol] | 250 to 2800 | > 10000 | 10 to 50 | 250 to 2800 |  | 
CCOc1ccc(-c2nnc(-c3cc(F)c(OC[C@H](N)CO)cc3Cl)s2)cc1C#N [Entry 76, 5-[5-(4-{[(2R)-2-amino-3-hydroxyporpyl]oxy}-2-chloro-5-fluorophenyl)-1,3,4-thiadiazol-2-yl]-2-(ethyloxy)benzonitrile] | 50 to 250 | > 10000 | 10 to 50 | ≤ 10 |  | 
CC(C)Nc1ccc(-c2nnc(-c3cc(F)c(OC[C@H](N)COP(=O)(O)O)cc3Cl)s2)cn1 [Entry 52, (2S)-2-amino-3-{[5-chloro-2-fluoro-4-(5-{6-[(1-methylethyl)amino]pyridin-3-yl}-1,3,4-thiadiazol-2-yl)phenyl]oxy}propyl dihydrogen phosphate] | ≤ 10 |  | ≤ 10 | ≤ 10 | > 250 | 

Other lines, results leading:

EC50 [1] [nM] | EC50 ([2]; read-out: Assay 5 EC50) [nM] | EC50 ([3]; read-out: Assay 2b EC50) [nM] | EC50 [4] [nM] | EC50 [2, 5] [nM] | EC50 ([3]; * = rEC50 measured rather than EC50, read-out: Assay 2b rEC50 (relative EC50, cells marked *)) [nM] | Compound
250 to 2800 | ≤ 250 | ≤ 10 | 10 to 50 |  |  | CC(C)Oc1ccc(-c2nnc(-c3cc(F)c(OC[C@@H](N)CO)cc3Cl)s2)cn1 [Entry 38, (2S)-2-amino-3-{[5-chloro-2-fluoro-4-(5-{6-[(1-methylethyl)oxy]pyridin-3-yl}-1,3,4-thiadiazol-2-yl)phenyl]oxy}propan-1-ol]
10 to 50 |  | ≤ 10 | ≤ 10 | > 250 |  | CC(C)Nc1ccc(-c2nnc(-c3cc(F)c(OC[C@@H](N)CO)cc3Cl)s2)cc1Cl [Entry 45, (2S)-2-amino-3-{[5-chloro-4-(5-{3-chloro-4-[(1-methylethyl)amino]phenyl}-1,3,4-thiadiazol-2-yl)-2-fluorophenyl]oxy}propan-1-ol]
250 to 2800 | > 10000 | ≤ 10 | 10 to 50 |  |  | Cc1cc(-c2nnc(-c3cc(F)c(OC[C@@H](N)[C@@H](C)O)cc3Cl)s2)cnc1NC(C)C [Entry 67, (2R,3R)-3-amino-4-{[5-chloro-2-fluoro-4-(5-{5-methyl-6-[(1-methylethyl)amino]pyridin-3-yl}-1,3,4-thiadiazol-2-yl)phenyl]oxy}butan-2-ol]
10 to 50 | > 250 | ≤ 10 | ≤ 10 |  |  | CC(C)Nc1ccc(-c2nnc(-c3cc(F)c(OC[C@H](N)[C@H](C)OP(=O)(O)O)cc3Cl)s2)cn1 [Entry 54, (1S,2S)-2-amino-3-{[5-chloro-2-fluoro-4-(5-{6-[(1-methylethyl)amino]pyridin-3-yl}-1,3,4-thiadiazol-2-yl)phenyl]oxy}-1-methylpropyl dihydrogen phosphate]
250 to 2800 | > 10000 | 50 to 250 | 50 to 250 |  |  | CC(C)Nc1cc(-c2nnc(-c3cc(F)c(OC[C@H](N)[C@@H](C)O)cc3Cl)s2)ccn1 [Entry 57]
10 to 50 | > 10000 | 50 to 250 | ≤ 10 |  |  | CC(C)Oc1ccc(-c2nnc(-c3cc(Cl)c(OC[C@H](N)CO)c(Cl)c3)s2)cc1Cl [Entry 39, (2R)-2-amino-3-{[2,6-dichloro-4-(5-{3-chloro-4-[(1-methylethyl)oxy]phenyl}-1,3,4-thiadiazol-2-yl)phenyl]oxy}propan-1-ol]
2800 to 10000 | > 10000 | ≤ 10 | 250 to 2800 |  |  | Cc1cc(-c2nnc(-c3cc(F)c(OC[C@@H](N)[C@H](C)O)cc3Cl)s2)cnc1NC(C)C [Entry 96, (2S,3R)-3-amino-4-{[5-chloro-2-fluoro-4-(5-{5-methyl-6-[(1-methylethyl)amino]pyridin-3-yl}-1,3,4-thiadiazol-2-yl)phenyl]oxy}butan-2-ol]
